According to patent US12152012B2, “BRAG2 inhibitors and applications thereof” (CENTRE NATIONAL DE LA RECHERCHE SCIENTIFIQUE, priority 2018, dated 2024):
“Also recorded” adds a separate entry of the source.

What was measured:
[1] = biological target: T1, BRAG2 binding to PIP2-containing liposomes (Homo sapiens, UniProt Q6DN90); assay: Liposome flotation assay
T1 construct: human BRAG2^Sec7 (390-594) and BRAG2^Sec7PH (390-811); made in house
Experimental: FIG. 4. Bragsin is a non-competitive inhibitor of protein-membrane interactions • a. Bragsin1 (in violet) overlaps with the canonical phosphoinositide-binding site of the PH domain of BRAG2. IP3 (in red) is from the GRP1-IP3 complex (DiNitto, J. P. et al. Structural basis and mechanism of autoregulation in 3-phosphoinositide-dependent Grp1 family Arf GTPase exchange factors. Mol Cell 28, 569-83 (2007)). The position of the membrane is indicated by an arrow. • b. […] Binding was measured by liposome flotation. U: bottom fraction, containing unbound proteins; B: top fraction, containing liposome-bound proteins. […] Quantification is shown below. • c. Inhibition of BRAG2 by Bragsin2 is stronger in the presence of liposomes that contain PIP2 lipids. Kinetics were measured as in FIG. 2b.
Bragsin may partially overlap with a lipid bound at this position was predicted by comparison of the PH domain of a cytohesin ArfGEF with a phosphoinositide headgroup bound to the canonical lipid-binding site (DiNitto, J. P. et al. Mol Cell 28, 569-83 (2007))(FIG. 4a). Bragsin inhibition could act by blocking the interaction of BRAG2 with membranes. […] Alternatively, Bragsin may bind at the interface between the PH domain and the membrane if inhibition is sensitive to the lipid composition of the membrane. […]

[2] = test system: GM130 (cis-Golgi marker) in Hela cells; assay: Immunostaining and confocal microscopy of Hela cells; format: cell-based, human; settings: for Reversibility of GM130 dispersion: 50 μM 30 min, then 30 min in fresh medium; for Dispersion of GM130 marker: 50 μM, 30 min
Experimental: FIG. 1. Bragsin2 affects Arf pathways in cells • a. Chemical structures of Bragsin1 and Bragsin2 and derivatives used in this study. Chemical synthesis and structural characterization of the compounds are described in example 6. • b. Bragsin2 disperses the TGN46 and GM130 markers. HeLa cells were treated with either DMSO (0.25%) or Bragsin2 (50 μM) for 30 min, immunostained for TGN46, GM130 or EEA1 (green channel) and analysed by confocal microscopy. Dispersion of GM130 and TGN46 by Bragsin2 is reversible. Hela cells were treated as in FIG. 1a and were incubated for an additional 30 min in fresh medium (wash panel) prior to immunostaining and confocal microscopy analysis. Expression of Arf-mCherry constructs carrying an activating mutation rescues the effect of Bragsin2. Hela cells were transfected with constitutively active Q/L mutants of Arf-mCherry. Note the difference between non-transfected cells (white asterisk) and transfected cells. Scale bars, 10 μm.
Hela cells were grown in Dulbecco's modified Eagle's medium supplemented with Glutamax™ and 10% fetal bovine serum (Invitrogen). For immunofluorescence studies, cells were grown on Labtek glass slides (Nunc) and transfected for 18 to 24 h using Lipofectamine 2000 (Invitrogen), according to the supplier's instructions. When specified, cells were treated with the indicated concentration of small molecule or corresponding volume of vehicle (DMSO) in growth medium for 30 min at 37° C.
Immunostaining procedure was as described in (Viaud, J. et al. Structure-based discovery of an inhibitor of Arf activation by Sec7 domains through targeting of protein-protein complexes. Proc Natl Acad Sci USA 104, 10370-5 (2007)) except that secondary antibody incubation was performed for 1h using Alexa 488-conjugated goat anti-mouse (1:600) or donkey anti-sheep (1:500) IgG and Alexa 647-conjugated phalloidin (1:100). Anti-GM130 was used at dilution 1:200. Images were bidirectionally recorded using an inverted Leica TCS SP8 laser-scanning confocal microscope with a 100× (N. A. 1.40) oil objective (HCX APO, Leica). Fluorochromes were detected sequentially using excitation laser lines at 488 nm (Alexa 488), 594 nm (mCherry) and 633 nm (Alexa 647). Stacks were generated using a z-step of 0.5 μm and processed using Fiji/ImageJ (Schindelin, J. et al. Fiji: an open-source platform for biological-image analysis. Nat Methods 9, 676-82 (2012)). Images are representative of at least two independent experiments.

[3] = Stability in aqueous solution / PBS (mass spectroscopy); format: physicochemical; settings: for Chemical stability in aqueous solution: after a few days in aqueous solution; for Stability in PBS by mass spectroscopy: dissolved in PBS, within 72 hours

T1 sequence (Q6DN90 512-933): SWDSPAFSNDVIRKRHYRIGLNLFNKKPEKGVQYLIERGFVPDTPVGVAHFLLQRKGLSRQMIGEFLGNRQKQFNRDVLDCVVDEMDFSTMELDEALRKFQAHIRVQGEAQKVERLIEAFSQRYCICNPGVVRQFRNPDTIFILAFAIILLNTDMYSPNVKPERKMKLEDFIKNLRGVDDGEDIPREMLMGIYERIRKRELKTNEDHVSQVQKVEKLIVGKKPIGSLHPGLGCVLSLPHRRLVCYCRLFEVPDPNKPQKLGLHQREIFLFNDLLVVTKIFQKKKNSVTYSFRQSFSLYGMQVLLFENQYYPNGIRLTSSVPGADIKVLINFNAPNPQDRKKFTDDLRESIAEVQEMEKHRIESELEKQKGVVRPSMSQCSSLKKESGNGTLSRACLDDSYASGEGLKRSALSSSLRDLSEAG

Structure (SMILES)	Displacement of BRAG2 from PIP2-containing liposomes [1]	Reversibility of GM130 dispersion [2]	Dispersion of GM130 marker [2]	Chemical stability in aqueous solution [3]	Stability in PBS by mass spectroscopy [3]
COc1ccc2oc(C(F)(F)F)cc(=O)c2c1[N+](=O)[O-] [Bragsin2, 6-methoxy-5-nitro-2-(trifluoromethyl)-4H-chromen-4-one]	did not displace; also recorded: does not impair binding	reversible	disperses	resistant to hydration and stable	remained stable
Cc1ccc2oc(C(F)(F)F)cc(=O)c2c1[N+](=O)[O-] [Bragsin1, 6-methyl-5-nitro-2-(trifluoromethyl)-4H-chromen-4-one]		reversible	disperses	chemically unstable	slowly decomposed
